Where a SMILES comes first, the peptide text is derived from it. The star is where a group is joined. Succinyl(4-O-cholesteryl) = CC(C)CCC[C@@H](C)[C@H]1CC[C@H]2[C@@H]3CC=C4C[C@@H](OC(=O)CCC(=O)*)CC[C@]4(C)[C@H]3CC[C@]12C
How the values were obtained:
hMPV A2 = type: cell-based; details: Vero cells, plaque reduction
Method: (§1) African green monkey kidney cells (Vero) were sourced from the ATCC, with catalog number CCL-81. The cells were cultured in a DMEM culture solution in which 10% fetal bovine serum, 1% non-essential amino acids, 1% sodium pyruvate, 1% L-glutamine, 100 U/ml penicillin, and 100 μg/ml streptomycin were added.
(§2) A hMPV plaque experiment culture medium consisted of an Opti-MEM culture solution added with 1% non-essential amino acids, 100 U/mL penicillin, and 100 μg/mL streptomycin.
(§3) hMPV virus strains A2 and B1 were constructed by WuXi App Tec.
(§4) This study used a plaque reduction experiment to detect the in-vitro activity of a test sample against the hMPV virus strains A2 and B1.
(§5) The test sample and an experimental system were tested at 8 concentrations in duplicated wells. The Vero cells were digested with trypsin and then diluted to a concentration of 400,000 cells per milliliter by using a cell culture solution containing 2% serum. The diluted cells were added to a 96-well cell test board, with 100 μL per well, corresponding to 40000 cells per well. The cells were cultured overnight in a 37° C. incubator with 5% CO2.
(§6) On the second day, the test sample was diluted in an experimental culture medium at a fold ratio. The sample diluted at a fold ratio and an equal volume of virus (approximately 200 PFU per well) were well mixed and incubated at 33° C. in 5% CO2 for 1 h. Then, the culture solution in the 96-well cell test board was discarded, the sample virus mixed solution (100 μL) was added to the 96-well cell culture plate, and incubated at 37° C. in 5% CO2 for 2 hours. After 2 h, the sample virus mixed solution was discarded, 200 μL of an experiment culture medium containing the test sample with a corresponding concentration was added, and the culture solution contained 0.8% CMC and 5 μg/ml trypsin. A final concentration of DMSO in the culture solution was 0.5%. A system control antibody was directly added to the experiment culture solution containing 0.8% CMC and 5 μg/ml trypsin. A cell control (cells, without compound treatment or viral infection) and a viral control (cell infection virus, without compound treatment) were set. The cells were cultured for 1 day in the 33° C. incubator with 5% CO2.
(§7) The cells were fixed with 4% paraformaldehyde, and then permeabilization was performed with 0.5% Triton X-100. After the plate was washed with DPBS, a hMPV specific antibody (1:2000 dilution) was added and incubated at 37° C. for 1.5 h. Then, a secondary antibody (1:1000 dilution) was added and incubated at 37° C. for 1 hour. The secondary antibody was discarded, a TrueBlue solution was added, dyeing was performed for approximately 10 minutes; and the plate was washed with running water and then air-dried, and the number of spots in each well was counted by using a microplate imaging counter.
(§8) Raw data was used for analyzing the antiviral activity of the test samples. A calculation formula was shown as follows.
(§9) % inhibition rate=100−(sample value-cell control average value)/(virus control average value-cell control average value)×100
(§10) Non-linear fitting analysis was performed on the inhibition rate of the sample by using GraphPad Prism (version 10), so as to calculate an EC50 value for the sample. A fitting formula was log (inhibitor) vs. response-Variable slope (four parameters).

hMPV B1 = type: cell-based; details: Vero cells, plaque reduction
Method: as §1, §2, §3, §4, §5, §6, §7, §8, §9, §10

## CC[C@H](C)[C@H](NC(=O)[C@H](CCCCN)NC(=O)[C@H](CCCCN)NC(=O)[C@H](CC(C)C)NC(=O)[C@H](CO)NC(=O)[C@H](CCC(=O)O)NC(=O)[C@H](CCC(=O)O)NC(=O)[C@@H](NC(=O)[C@H](CCCCN)NC(=O)[C@H](CCCCN)NC(=O)[C@H](CC(N)=O)NC(=O)[C@@H](NC(=O)[C@H](CCC(=O)O)NC(=O)[C@H](CCC(=O)O)NC(=O)[C@@H](NC(=O)[C@H](CCCCN)NC(=O)[C@H](CCCCN)NC(=O)[C@H](CC(=O)O)NC(=O)[C@H](Cc1ccccc1)NC(=O)[C@H](CCC(=O)O)NC(=O)[C@H](CC(=O)O)NC(=O)[C@H](Cc1c[nH]c2ccccc12)NC(C)=O)[C@@H](C)CC)C(C)C)[C@@H](C)CC)C(=O)N[C@@H](CCC(=O)O)C(=O)N[C@@H](CCC(=O)O)C(=O)N[C@@H](CO)C(=O)N[C@@H](CC(=O)O)C(=O)N[C@@H](CCCCN)C(=O)N[C@@H](CCCCN)C(=O)N[C@@H](CC(C)C)C(=O)N[C@@H](CCC(=O)O)C(=O)N[C@@H](CCC(=O)O)C(=O)N[C@H](C(=O)N[C@@H](CC(N)=O)C(=O)N[C@@H](CCC(=O)O)C(=O)N[C@@H](C)C(=O)N[C@@H](C)C(=O)N[C@@H](C)C(=O)N[C@@H](CCCCN)C(=O)N[C@@H](CCCCNC(=O)CCC(=O)O[C@H]1CC[C@@]2(C)C(=CC[C@H]3[C@@H]4CC[C@H]([C@H](C)CCCC(C)C)[C@@]4(C)CC[C@@H]32)C1)C(N)=O)C(C)C [Compound 41] (Ac-WDEFDKKIEEVNKKIEESLKKIEESDKKLEEVNEAAAKK(Succinyl(4-O-cholesteryl))-NH2)
hMPV A2
  EC50: 11.7 nM
hMPV B1
  EC50: 9.46 nM

## CC[C@H](C)[C@H](NC(=O)[C@H](CO)NC(=O)[C@H](C)NC(=O)[C@H](CC(=O)O)NC(=O)[C@H](Cc1ccccc1)NC(C)=O)C(=O)N[C@@H](CCC(=O)O)C(=O)N[C@@H](CCC(=O)O)C(=O)N[C@H](C(=O)N[C@@H](CC(N)=O)C(=O)N[C@@H](CCCNC(=N)N)C(=O)N[C@@H](CCCNC(=N)N)C(=O)N[C@H](C(=O)N[C@@H](CCC(=O)O)C(=O)N[C@@H](CCC(=O)O)C(=O)N[C@@H](CO)C(=O)N[C@@H](CC(C)C)C(=O)N[C@@H](CCCNC(=N)N)C(=O)N[C@@H](CCCNC(=N)N)C(=O)N[C@H](C(=O)N[C@@H](CCC(=O)O)C(=O)N[C@@H](CCC(=O)O)C(=O)N[C@@H](CO)C(=O)N[C@@H](CC(=O)O)C(=O)N[C@@H](CCCNC(=N)N)C(=O)N[C@@H](CCCNC(=N)N)C(=O)N[C@@H](CC(C)C)C(=O)N[C@@H](CCC(=O)O)C(=O)N[C@@H](CCC(=O)O)C(=O)N[C@H](C(=O)N[C@@H](CC(N)=O)C(=O)N[C@@H](C)C(=O)N[C@@H](CCC(=O)O)C(=O)N[C@@H](C)C(=O)N[C@@H](C)C(=O)N[C@@H](C)C(=O)N[C@@H](CCCCN)C(=O)N[C@@H](CCCCNC(=O)CCC(=O)O[C@H]1CC[C@@]2(C)C(=CC[C@H]3[C@@H]4CC[C@H]([C@H](C)CCCC(C)C)[C@@]4(C)CC[C@@H]32)C1)C(N)=O)C(C)C)[C@@H](C)CC)[C@@H](C)CC)C(C)C [Compound 42] (Ac-FDASIEEVNRRIEESLRRIEESDRRLEEVNAEAAAKK(Succinyl(4-O-cholesteryl))-NH2)
hMPV A2
  EC50: 26.1 nM
hMPV B1
  EC50: 10.1 nM

## CC[C@H](C)[C@H](NC(=O)[C@H](CO)NC(=O)[C@H](C)NC(=O)[C@H](CC(=O)O)NC(=O)[C@H](Cc1ccccc1)NC(=O)[C@H](CCC(=O)O)NC(=O)[C@H](CC(=O)O)NC(=O)[C@H](Cc1c[nH]c2ccccc12)NC(C)=O)C(=O)N[C@@H](CCC(=O)O)C(=O)N[C@@H](CCC(=O)O)C(=O)N[C@H](C(=O)N[C@@H](CC(N)=O)C(=O)N[C@@H](CCCNC(=N)N)C(=O)N[C@@H](CCCNC(=N)N)C(=O)N[C@H](C(=O)N[C@@H](CCC(=O)O)C(=O)N[C@@H](CCC(=O)O)C(=O)N[C@@H](CO)C(=O)N[C@@H](CC(C)C)C(=O)N[C@@H](CCCNC(=N)N)C(=O)N[C@@H](CCCNC(=N)N)C(=O)N[C@H](C(=O)N[C@@H](CCC(=O)O)C(=O)N[C@@H](CCC(=O)O)C(=O)N[C@@H](CO)C(=O)N[C@@H](CC(=O)O)C(=O)N[C@@H](CCCNC(=N)N)C(=O)N[C@@H](CCCNC(=N)N)C(=O)N[C@@H](CC(C)C)C(=O)N[C@@H](CCC(=O)O)C(=O)N[C@@H](CCC(=O)O)C(=O)N[C@H](C(=O)N[C@@H](CCC(=O)O)C(=O)N[C@@H](C)C(=O)N[C@@H](C)C(=O)N[C@@H](C)C(=O)N[C@@H](CCCCN)C(=O)N[C@@H](CCCCNC(=O)CCC(=O)O[C@H]1CC[C@@]2(C)C(=CC[C@H]3[C@@H]4CC[C@H]([C@H](C)CCCC(C)C)[C@@]4(C)CC[C@@H]32)C1)C(N)=O)C(C)C)[C@@H](C)CC)[C@@H](C)CC)C(C)C [Compound 43] (Ac-WDEFDASIEEVNRRIEESLRRIEESDRRLEEVEAAAKK(Succinyl(4-O-cholesteryl))-NH2)
hMPV A2
  EC50: 16.8 nM
hMPV B1
  EC50: 8.01 nM

## CC[C@H](C)[C@H](NC(=O)[C@H](CCCCN)NC(=O)[C@H](CCCCN)NC(=O)[C@H](CC(C)C)NC(=O)[C@H](CO)NC(=O)[C@H](CCC(=O)O)NC(=O)[C@H](CCC(=O)O)NC(=O)[C@@H](NC(=O)[C@H](CCCCN)NC(=O)[C@H](CCCCN)NC(=O)[C@H](CC(N)=O)NC(=O)[C@@H](NC(=O)[C@H](CCC(=O)O)NC(=O)[C@H](CCC(=O)O)NC(=O)[C@@H](NC(=O)[C@H](CCCCN)NC(=O)[C@H](CCCCN)NC(=O)[C@H](CC(=O)O)NC(=O)[C@H](Cc1ccccc1)NC(=O)[C@H](CCC(=O)O)NC(=O)[C@H](CC(=O)O)NC(=O)[C@H](Cc1c[nH]c2ccccc12)NC(C)=O)[C@@H](C)CC)C(C)C)[C@@H](C)CC)C(=O)N[C@@H](CCC(=O)O)C(=O)N[C@@H](CCC(=O)O)C(=O)N[C@@H](CO)C(=O)N[C@@H](CC(=O)O)C(=O)N[C@@H](CCCCN)C(=O)N[C@@H](CCCCN)C(=O)N[C@@H](CC(C)C)C(=O)N[C@@H](Cc1c[nH]cn1)C(=O)N[C@@H](CC(N)=O)C(=O)N[C@H](C(=O)N[C@@H](CCC(=O)O)C(=O)N[C@@H](C)C(=O)N[C@@H](C)C(=O)N[C@@H](C)C(=O)N[C@@H](CCCCN)C(=O)N[C@@H](CCCCNC(=O)CCC(=O)O[C@H]1CC[C@@]2(C)C(=CC[C@H]3[C@@H]4CC[C@H]([C@H](C)CCCC(C)C)[C@@]4(C)CC[C@@H]32)C1)C(N)=O)C(C)C [Compound 44] (Ac-WDEFDKKIEEVNKKIEESLKKIEESDKKLHNVEAAAKK(Succinyl(4-O-cholesteryl))-NH2)
hMPV A2
  EC50: 14.6 nM
hMPV B1
  EC50: 6.6 nM

## CC[C@H](C)[C@H](NC(=O)[C@H](CO)NC(=O)[C@H](C)NC(=O)[C@H](CC(=O)O)NC(=O)[C@H](Cc1ccccc1)NC(=O)[C@H](CCC(=O)O)NC(=O)[C@H](CC(=O)O)NC(=O)[C@H](Cc1c[nH]c2ccccc12)NC(C)=O)C(=O)N[C@@H](CO)C(=O)N[C@@H](CCC(N)=O)C(=O)N[C@H](C(=O)N[C@@H](CC(N)=O)C(=O)N[C@@H](CCC(=O)O)C(=O)N[C@@H](CCCCN)C(=O)N[C@H](C(=O)N[C@@H](CC(N)=O)C(=O)N[C@@H](CCC(N)=O)C(=O)N[C@@H](CO)C(=O)N[C@@H](CC(C)C)C(=O)N[C@@H](CCC(=O)O)C(=O)N[C@@H](CCC(=O)O)C(=O)N[C@H](C(=O)N[C@@H](CCCNC(=N)N)C(=O)N[C@@H](CCCCN)C(=O)N[C@@H](CO)C(=O)N[C@@H](CC(=O)O)C(=O)N[C@@H](CCC(=O)O)C(=O)N[C@@H](CC(C)C)C(=O)N[C@@H](CC(C)C)C(=O)N[C@@H](Cc1c[nH]cn1)C(=O)N[C@@H](CC(N)=O)C(=O)N[C@@H](CCC(=O)O)C(=O)N[C@@H](C)C(=O)N[C@@H](C)C(=O)N[C@@H](C)C(=O)N[C@@H](CCCCN)C(=O)N[C@@H](CCCCNC(=O)CCC(=O)O[C@H]1CC[C@@]2(C)C(=CC[C@H]3[C@@H]4CC[C@H]([C@H](C)CCCC(C)C)[C@@]4(C)CC[C@@H]32)C1)C(N)=O)[C@@H](C)CC)[C@@H](C)CC)C(C)C [Compound 45] (Ac-WDEFDASISQVNEKINQSLEEIRKSDELLHNEAAAKK(Succinyl(4-O-cholesteryl))-NH2)
hMPV A2
  EC50: 200 nM
hMPV B1
  EC50: 13.1 nM

Reference: US20260250325A1, “Antiviral Polypeptide Membrane Fusion Inhibitor, and Preparation Method and Application Thereof” (priority 2025, published 2026)
